Experimental findings from US12180207B2 (ARRAY BIOPHARMA INC., priority 2018, dated 2024) are described below.

In general, IC50 refers to the point on the concentration scale where inhibition reaches its midpoint.

Experiment [1] deals with recombinant human FGFR2 cytoplasmic domain (amino acids 403-822) (Homo sapiens (Human), UniProt P21802). As to the kind of experiment: FGFR2 enzyme activity assay (LanthaScreen TR-FRET). The experiment is classed as biochemical. Particulars: 15 μM ATP, 20 min incubation at 22° C., average of multiple determinations if made, read-out: FGFR2 Enz FRET IC50. The gist of the method: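 Substrate phosphorylation was read by TR-FRET using Eu-PY20 antibody (60 min, 22 °C) after a 20 min, 22 °C reaction. The reaction used 15 μM ATP, 100 nM fluorescent poly-GT peptide and His-tagged FGFR2 403-822 ([…]) at pH 7.5 with 2% DMSO.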
A general note: TR-FRET usually uses a lanthanide donor and a delayed reading to cut background.

Experiment [2] has as its target FGFR3 (SEQ ID NO: 5, amino acids 449-759) (Homo sapiens (Human), UniProt P22607). As to the kind of experiment: LC/MS FGFR3 kobs assay (covalent protein modification). As to conditions: 500 nM FGFR3, 3 μM compound. The format is binding. In a few lines: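 Each time-point sample was quenched in 0.4% formic acid and analyzed by Q-TOF LC/MS. Deconvoluted signals gave percent modified and unmodified protein, normalized to the DMSO control, and the decay of unmodified protein yielded kobs.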

For experiment [3], the target named is FGFR1 (SEQ ID NO: 1, amino acids 458-765) (Homo sapiens (Human), UniProt P11362). Put plainly: LC/MS FGFR1 kobs assay (covalent protein modification). The experiment is classed as binding. Particulars: 500 nM FGFR1, 3 μM compound. In a few lines: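 Covalent labeling of FGFR1 kinase domain (aa 458-765) tracked over time by intact-protein LC/MS after formic acid quench. kobs derived by fitting DMSO-normalized percent unmodified FGFR1 to an exponential decay model.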

Experiment [4] has as its target HEK-293 cells transfected with dox-inducible human wild type FGFR1 (Homo sapiens (Human), UniProt P11362). Put plainly: FGFR1 pERK cell assay. The format is cell-based. As to conditions: HEK-293 dox-inducible FGFR1, 1 hour compound, 100 ng/ml FGF-acidic; maximum concentration 5 μM. On the procedure:
FGFR1 pERK Cell Assay: • HEK-293 cells transfected with doxycycline(dox)-inducible human wild type FGFR1 (SEQ ID NO: 1) were plated in a collagen or poly-D-lysine coated 96 well flat bottom plates at 4×10^5 cells/well in complete Dulbecco's Modified Eagle Medium (DMEM) containing 10% FBS and 1 μg/ml doxycycline and allowed to attach for 24 h at 37° C., 5% CO2. Cells were treated with compound using 1:3 serial dilutions with a maximum final concentration of 5 μM. Compound was incubated on cells for 1 hour at 37° C., 5% CO2. Cells were then stimulated with a final concentration of 100 ng/ml human FGF-acidic (R&D Systems Cat number 232-FA/CF) for 5 minutes at 37° C., 5% CO2. Medium was removed, and cells were lysed with lysis buffer containing phosphatase and protease inhibitors. Phospho ERK1/2 was measured using the Meso Scale Discovery sandwich assay (Meso Scale Discovery cat. no. K151DWD). The assay captures phospho ERK1/2 and detects with a sulfo-tagged total ERK1/2 antibody. The chemiluminescent signal was read on the Sector Imager Plate reader. 100 POC was determined using no test compound and 0 POC was determined using a control compound. The POC values were fit to a 4-parameter logistic curve as a function of the concentration of the compound, and the IC50 value is the point where the curve crosses 50 POC.

For experiment [5], the target named is recombinant human FGFR3 (amino acids R397-T806) (Homo sapiens (Human), UniProt P22607). Put plainly: FGFR3 enzyme activity assay (LanthaScreen TR-FRET). As to conditions: 25 μM ATP, 10 min incubation at 22° C., average of multiple determinations if made, read-out: FGFR3 Enz FRET IC50. The format is biochemical. In a few lines:
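GST-HIS6-tagged human FGFR3 (R397-T806) was reacted with 100 nM Alexa Fluor 647-Poly-GT substrate and 25 μM ATP plus compound in HEPES/MgCl2/Triton buffer, pH 7.5, 2% DMSO, for 10 min at 22 °C.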

FGFR1 (SEQ ID NO: 1, amino acids 458-765), sequence (P11362 458-765): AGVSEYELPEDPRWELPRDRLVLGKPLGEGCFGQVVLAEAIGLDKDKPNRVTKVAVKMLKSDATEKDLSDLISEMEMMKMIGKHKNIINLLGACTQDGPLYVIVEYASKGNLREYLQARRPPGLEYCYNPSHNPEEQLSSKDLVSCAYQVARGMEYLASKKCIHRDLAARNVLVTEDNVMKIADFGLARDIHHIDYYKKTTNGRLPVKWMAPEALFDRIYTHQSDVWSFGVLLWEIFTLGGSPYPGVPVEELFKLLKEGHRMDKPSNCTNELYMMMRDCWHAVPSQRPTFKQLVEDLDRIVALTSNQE
HEK-293 cells transfected with dox-inducible human wild type FGFR1, sequence (P11362 22-822): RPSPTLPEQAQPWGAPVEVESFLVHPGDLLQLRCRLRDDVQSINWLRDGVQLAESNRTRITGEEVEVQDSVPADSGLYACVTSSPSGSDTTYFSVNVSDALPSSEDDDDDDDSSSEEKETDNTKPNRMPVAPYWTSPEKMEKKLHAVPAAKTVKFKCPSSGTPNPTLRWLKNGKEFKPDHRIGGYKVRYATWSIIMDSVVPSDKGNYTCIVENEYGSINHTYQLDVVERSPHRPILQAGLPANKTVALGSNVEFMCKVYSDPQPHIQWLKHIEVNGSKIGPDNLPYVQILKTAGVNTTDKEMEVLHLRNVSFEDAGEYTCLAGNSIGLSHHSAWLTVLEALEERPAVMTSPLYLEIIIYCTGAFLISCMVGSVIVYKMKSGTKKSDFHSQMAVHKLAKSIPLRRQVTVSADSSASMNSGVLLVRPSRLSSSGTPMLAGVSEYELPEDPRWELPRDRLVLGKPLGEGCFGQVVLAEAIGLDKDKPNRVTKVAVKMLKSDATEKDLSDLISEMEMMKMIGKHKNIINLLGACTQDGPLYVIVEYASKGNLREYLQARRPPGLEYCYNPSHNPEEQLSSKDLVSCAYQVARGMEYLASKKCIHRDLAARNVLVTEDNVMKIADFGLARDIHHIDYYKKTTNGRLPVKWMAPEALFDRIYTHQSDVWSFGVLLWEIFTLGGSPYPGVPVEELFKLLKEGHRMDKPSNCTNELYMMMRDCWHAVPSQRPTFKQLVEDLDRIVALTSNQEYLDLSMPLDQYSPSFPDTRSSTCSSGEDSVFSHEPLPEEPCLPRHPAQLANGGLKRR
recombinant human FGFR3 (amino acids R397-T806), sequence (P22607 397-806): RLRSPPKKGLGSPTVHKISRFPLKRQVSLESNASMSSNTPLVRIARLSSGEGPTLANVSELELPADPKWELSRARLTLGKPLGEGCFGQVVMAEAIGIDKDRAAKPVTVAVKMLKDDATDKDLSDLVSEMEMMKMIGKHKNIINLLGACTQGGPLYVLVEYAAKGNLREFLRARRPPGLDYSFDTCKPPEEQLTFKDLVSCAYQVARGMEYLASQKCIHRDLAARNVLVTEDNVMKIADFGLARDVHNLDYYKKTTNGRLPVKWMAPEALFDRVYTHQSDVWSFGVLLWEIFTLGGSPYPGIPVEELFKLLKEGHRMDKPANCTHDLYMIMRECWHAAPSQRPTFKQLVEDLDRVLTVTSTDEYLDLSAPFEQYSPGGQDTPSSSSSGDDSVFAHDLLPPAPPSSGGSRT
recombinant human FGFR2 cytoplasmic domain (amino acids 403-822), sequence (P21802 402-821): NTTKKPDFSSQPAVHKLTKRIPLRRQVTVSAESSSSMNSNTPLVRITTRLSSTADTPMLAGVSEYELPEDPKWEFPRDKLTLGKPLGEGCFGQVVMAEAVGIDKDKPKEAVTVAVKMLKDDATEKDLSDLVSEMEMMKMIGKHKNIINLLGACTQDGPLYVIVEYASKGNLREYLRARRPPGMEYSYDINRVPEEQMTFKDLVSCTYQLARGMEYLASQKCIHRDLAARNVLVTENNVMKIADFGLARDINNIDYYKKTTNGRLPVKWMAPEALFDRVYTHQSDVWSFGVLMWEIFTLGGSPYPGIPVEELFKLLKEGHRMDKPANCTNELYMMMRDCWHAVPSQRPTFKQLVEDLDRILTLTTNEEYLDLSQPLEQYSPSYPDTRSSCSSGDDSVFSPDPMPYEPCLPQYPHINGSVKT
FGFR3 (SEQ ID NO: 5, amino acids 449-759), sequence (P22607 449-759): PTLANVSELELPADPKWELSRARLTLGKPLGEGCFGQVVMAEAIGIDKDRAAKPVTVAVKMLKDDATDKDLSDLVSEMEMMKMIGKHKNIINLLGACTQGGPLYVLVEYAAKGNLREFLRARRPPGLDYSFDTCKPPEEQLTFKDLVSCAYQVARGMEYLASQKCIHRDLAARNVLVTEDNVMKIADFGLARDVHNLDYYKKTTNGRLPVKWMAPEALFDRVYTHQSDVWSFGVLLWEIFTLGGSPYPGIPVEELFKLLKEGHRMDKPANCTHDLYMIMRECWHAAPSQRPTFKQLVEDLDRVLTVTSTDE

Regarding `C=CC(=O)N1CC(OC)(C(=O)N2CCC(n3nc(C)c(-c4cc(OC)c5c(C#N)cnn5c4)c3C)CC2)C1` [Example 95, 6-(1-(1-(1-acryloyl-3-methoxyazetidine-3-carbonyl)piperidin-4-yl)-3,5-dimethyl-1H-pyrazol-4-yl)-4-methoxypyrazolo[1,5-a]pyridine-3-carbonitrile], the IC50 in experiment [1] was 324 nM; in experiment [4], 1070 nM; in experiment [5], 103 nM. The “FGFR3 Enz kobs” value in experiment [2] stood at 0.04202 min⁻¹. For the same compound, the “FGFR1 Enz kobs” value in experiment [3] stood at 0.00409 min⁻¹.
`C=CC(=O)N1CC(F)(C(=O)N2CCC(n3ncc(-c4cc(OC)c5c(C#N)cnn5c4)c3CC)CC2)C1` [Example 96, 6-(1-(1-(1-acryloyl-3-fluoroazetidine-3-carbonyl)piperidin-4-yl)-5-ethyl-1H-pyrazol-4-yl)-4-methoxypyrazolo[1,5-a]pyridine-3-carbonitrile]: the IC50 came to 155 nM in experiment [1], 2100 nM in experiment [4] and 291 nM in experiment [5]. Also, the “FGFR3 Enz kobs” value in experiment [2] was determined as 0.03335 min⁻¹. The “FGFR1 Enz kobs” value in experiment [3] is 0.00363 min⁻¹.
As to `C=CC(=O)N1CC(C(=O)N2CCN(c3ccc(-c4cc(OC)c5c(C#N)cnn5c4)cc3)CC2)C1` [Example 100, 6-(4-(4-(1-acryloylazetidine-3-carbonyl)piperazin-1-yl)phenyl)-4-methoxypyrazolo[1,5-a]pyridine-3-carbonitrile], the values for the half-inhibitory concentration (IC50) in experiment [1], in experiment [4] and in experiment [5] were 5 nM, 180 nM and 2 nM, respectively. In addition, in experiment [2], the “FGFR3 Enz kobs” value was determined as 0.02324 min⁻¹. Moreover, in experiment [3], the “FGFR1 Enz kobs” value was found to be 0.0025 min⁻¹.
The corresponding values for `C=CC(=O)N1CC(C(=O)N2CCC3(CC2)CN(c2ccc(-c4cc(OC)c5c(C#N)cnn5c4)cn2)C3)C1` [Example 102, 6-(6-(7-(1-acryloylazetidine-3-carbonyl)-2,7-diazaspiro[3.5]nonan-2-yl)pyridin-3-yl)-4-methoxypyrazolo[1,5-a]pyridine-3-carbonitrile] are 11 nM, 239 nM, 22 nM, 0.02912 min⁻¹ and 0.00313 min⁻¹.
The corresponding values for `C=CC(=O)N1CC(C(=O)N2CCC3(C2)CN(c2ccc(-c4cc(OC)c5c(C#N)cnn5c4)cn2)C3)C1` [Example 103, 6-(6-(6-(1-acryloylazetidine-3-carbonyl)-2,6-diazaspiro[3.4]octan-2-yl)pyridin-3-yl)-4-methoxypyrazolo[1,5-a]pyridine-3-carbonitrile] are 10 nM, 573 nM, 20 nM, 0.02186 min⁻¹ and 0.00388 min⁻¹.
Consider `C=CC(=O)N1CC(C(=O)N2CC3(C2)CN(c2ccc(-c4cc(OC)c5c(C#N)cnn5c4)cn2)C3)C1` [Example 104, 6-(6-(6-(1-acryloylazetidine-3-carbonyl)-2,6-diazaspiro[3.3]heptan-2-yl)pyridin-3-yl)-4-methoxypyrazolo[1,5-a]pyridine-3-carbonitrile], for which the values for the IC50 in experiment [1], in experiment [4] and in experiment [5] were 20 nM, 1110 nM and 20 nM, respectively. Also, the “FGFR3 Enz kobs” value in experiment [2] was 0.03006 min⁻¹. Further, the “FGFR1 Enz kobs” value in experiment [3] was 0.00386 min⁻¹.
`C=CC(=O)N1CC(C(=O)N2CC3CC(C2)N3c2ccc(-c3cc(OC)c4c(C#N)cnn4c3)cn2)C1` [Example 105, 6-(6-(3-(1-acryloylazetidine-3-carbonyl)-3,6-diazabicyclo[3.1.1]heptan-6-yl)pyridin-3-yl)-4-methoxypyrazolo[1,5-a]pyridine-3-carbonitrile]: the IC50 amounted to 42 nM in experiment [1], 3960 nM in experiment [4] and 125 nM in experiment [5]. Further, the “FGFR3 Enz kobs” value in experiment [2] is 0.00147 min⁻¹. Besides, in experiment [3], the “FGFR1 Enz kobs” value is 0.00042 min⁻¹.
The corresponding values for `C=CC(=O)N1CC(C(=O)N2C[C@@H]3C[C@H]2CN3c2ccc(-c3cc(OC)c4c(C#N)cnn4c3)cn2)C1` [Example 106, 6-(6-((1S,4S)-5-(1-acryloylazetidine-3-carbonyl)-2,5-diazabicyclo[2.2.1]heptan-2-yl)pyridin-3-yl)-4-methoxypyrazolo[1,5-a]pyridine-3-carbonitrile] are 11 nM, 955 nM, 25 nM, 0.01259 min⁻¹ and 0.00246 min⁻¹.
Turning to `C=CC(=O)N1CC(C(=O)N2C[C@H]3C[C@@H]2CN3c2ccc(-c3cc(OC)c4c(C#N)cnn4c3)cn2)C1` [Example 107, 6-(6-((1R,4R)-5-(1-acryloylazetidine-3-carbonyl)-2,5-diazabicyclo[2.2.1]heptan-2-yl)pyridin-3-yl)-4-methoxypyrazolo[1,5-a]pyridine-3-carbonitrile], the results for the half-inhibitory concentration (IC50) in experiment [1], in experiment [4] and in experiment [5] were 9 nM, 1350 nM and 27 nM, respectively. Moreover, the “FGFR3 Enz kobs” value in experiment [2] was found to be 0.01688 min⁻¹. The “FGFR1 Enz kobs” value in experiment [3] was 0.00291 min⁻¹.
`COc1cc(-c2cnn(C3CCN(C(=O)C4CN(C(=O)C5=CCC5)C4)CC3)c2)cn2ncc(C#N)c12` [Example 137, 6-(1-(1-(1-(cyclobut-1-ene-1-carbonyl)azetidine-3-carbonyl)piperidin-4-yl)-1H-pyrazol-4-yl)-4-methoxypyrazolo[1,5-a]pyridine-3-carbonitrile]: the IC50 turned out to be 4 nM in experiment [1], 989 nM in experiment [4] and 5 nM in experiment [5]. Further, in experiment [2], the “FGFR3 Enz kobs” value was found to be 0.00097 min⁻¹.
For the compound `COc1cc(-c2cnn(C3CCN(C(=O)C4(F)CN(C(=O)/C=C/C(F)(F)F)C4)CC3)c2C)cn2ncc(C#N)c12` [Example 155, (E)-6-(1-(1-(3-fluoro-1-(4,4,4-trifluorobut-2-enoyl)azetidine-3-carbonyl)piperidin-4-yl)-5-methyl-1H-pyrazol-4-yl)-4-methoxypyrazolo [1,5-a]pyridine-3-carbonitrile], the half-maximal inhibitory concentration (IC50) in experiment [1] came out at 114 nM; in experiment [4], 157 nM; in experiment [5] it was 11 nM. Also, the “FGFR1 Enz kobs” value in experiment [3] was 0.03227 min⁻¹.
With `COc1cc(-c2cnn(C3CCN(CC4CN(C(=O)/C=C/CN5CCCCC5)C4)CC3)c2)cn2ncc(C#N)c12` [Example 175, (E)-4-methoxy-6-(1-(1-((1-(4-(piperidin-1-yl)but-2-enoyl)azetidin-3-yl)methyl)piperidin-4-yl)-1H-pyrazol-4-yl)pyrazolo[1,5-a]pyridine-3-carbonitrile], the IC50 in experiment [1] stood at 10 nM; in experiment [5] it was 5 nM. Moreover, the “FGFR3 Enz kobs” value in experiment [2] stood at 0.01233 min⁻¹. Further, the “FGFR1 Enz kobs” value in experiment [3] was determined as 0.00204 min⁻¹.
The corresponding values for `C=CC(=O)N(C)c1ccc(C(=O)N2CCC(n3cc(-c4cc(OC)c5c(C#N)cnn5c4)cn3)CC2)cc1` [Example 178, N-(4-(4-(4-(3-cyano-4-methoxypyrazolo[1,5-a]pyridin-6-yl)-1H-pyrazol-1-yl)piperidine-1-carbonyl)phenyl)-N-methylacrylamide] are 5 nM, 12 nM, 0.01469 min⁻¹ and 0.00131 min⁻¹.
As for `COc1cc(-c2cnn(C3CCN(C(=O)C4CN(C(=O)/C=C/CBr)C4)CC3)c2)cn2ncc(C#N)c12` [Example 180, (E)-6-(1-(1-(1-(4-bromobut-2-enoyl)azetidine-3-carbonyl)piperidin-4-yl)-1H-pyrazol-4-yl)-4-methoxypyrazolo[1,5-a]pyridine-3-carbonitrile], in experiment [2], the “FGFR3 Enz kobs” value amounted to 0.1329 min⁻¹. Also, the “FGFR1 Enz kobs” value in experiment [3] turned out to be 0.04552 min⁻¹. Besides, the half-maximal inhibitory concentration (IC50) in experiment [4] was 130 nM; in experiment [5], 6 nM.
